# Data taken from ChEMBL document CHEMBL1132047, “Nonpeptide oxytocin antagonists: analogs of L-371,257 with improved potency” (Bioorg Med Chem Lett, 1999).
# Columns and labels:
# [1] = tested on: Rattus norvegicus; assay: Compound tested in vivo for antagonist potency against oxytocin (OT)-induced in rats by iv administration; assay type: functional
# [2] = biological target: T1, Oxytocin receptor (Homo sapiens, UniProt P30559); assay: Binding affinity for human oxytocin receptor
# T1 sequence (P30559 whole entry): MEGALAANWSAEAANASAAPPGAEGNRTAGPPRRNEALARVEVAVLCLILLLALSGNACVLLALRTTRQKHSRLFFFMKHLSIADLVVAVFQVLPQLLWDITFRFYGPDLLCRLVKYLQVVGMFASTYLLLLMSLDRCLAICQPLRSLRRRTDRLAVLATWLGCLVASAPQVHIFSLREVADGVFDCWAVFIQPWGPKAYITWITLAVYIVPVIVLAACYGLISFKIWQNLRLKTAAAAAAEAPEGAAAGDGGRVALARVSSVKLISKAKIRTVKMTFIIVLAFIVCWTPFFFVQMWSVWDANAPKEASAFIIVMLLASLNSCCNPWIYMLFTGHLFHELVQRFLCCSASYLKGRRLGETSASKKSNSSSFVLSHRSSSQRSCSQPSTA
# [3] = biological target: T2, Oxytocin receptor (Rattus norvegicus, UniProt P70536); assay: Binding affinity for rat uterine oxytocin receptor (rOTr)
# T2 sequence (P70536 whole entry): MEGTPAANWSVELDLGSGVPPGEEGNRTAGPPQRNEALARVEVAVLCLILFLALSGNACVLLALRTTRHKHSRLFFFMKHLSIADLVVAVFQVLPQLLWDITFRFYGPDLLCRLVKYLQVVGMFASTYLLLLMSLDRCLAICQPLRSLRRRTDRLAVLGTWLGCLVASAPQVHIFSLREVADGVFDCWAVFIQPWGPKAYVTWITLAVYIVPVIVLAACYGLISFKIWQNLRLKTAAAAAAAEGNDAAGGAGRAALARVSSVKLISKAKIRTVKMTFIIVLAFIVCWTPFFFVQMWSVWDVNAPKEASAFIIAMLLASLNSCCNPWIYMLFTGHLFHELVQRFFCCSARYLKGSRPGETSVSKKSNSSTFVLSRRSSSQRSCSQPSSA
# [4] = Oral bioavailability in rat (dose 20 mg/kg); assay type: ADME, organism-based; conditions: in vivo
# [5] = tested on: Rattus norvegicus; assay: Compound tested in vivo for antagonist potency against oxytocin (OT)-induced in rats by id administration; assay type: functional
# [6] = Compound was evaluated in vivo in rat for the plasma half-life at a iv dose of 3 mg/kg and oral dose of 10 mg/kg and experiment by using concentration vs time curve; assay type: ADME, organism-based
# [7] = biological target: Vasopressin V1a receptor (Rattus norvegicus, UniProt P30560); assay: Binding affinity towards rat liver Vasopressin V1a receptor by using functional assay
# Sequence of Vasopressin V1a receptor (Rattus norvegicus, UniProt P30560) (P30560 whole entry): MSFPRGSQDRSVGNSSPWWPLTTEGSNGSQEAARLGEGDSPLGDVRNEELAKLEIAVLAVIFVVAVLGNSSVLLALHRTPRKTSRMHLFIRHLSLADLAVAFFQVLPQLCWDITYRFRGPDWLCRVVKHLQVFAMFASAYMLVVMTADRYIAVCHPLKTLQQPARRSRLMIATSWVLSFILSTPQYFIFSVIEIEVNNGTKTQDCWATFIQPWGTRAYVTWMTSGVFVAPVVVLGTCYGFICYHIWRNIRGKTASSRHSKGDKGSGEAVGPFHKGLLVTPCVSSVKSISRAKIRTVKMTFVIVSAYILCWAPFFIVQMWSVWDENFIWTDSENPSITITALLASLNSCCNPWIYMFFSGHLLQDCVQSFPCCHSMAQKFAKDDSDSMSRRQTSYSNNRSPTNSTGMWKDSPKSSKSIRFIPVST
# [8] = biological target: Vasopressin V2 receptor (Homo sapiens, UniProt P30518); assay: Binding affinity towards cloned human Vasopressin V2 receptor by using functional assay
# Sequence of Vasopressin V2 receptor (Homo sapiens, UniProt P30518) (P30518 whole entry): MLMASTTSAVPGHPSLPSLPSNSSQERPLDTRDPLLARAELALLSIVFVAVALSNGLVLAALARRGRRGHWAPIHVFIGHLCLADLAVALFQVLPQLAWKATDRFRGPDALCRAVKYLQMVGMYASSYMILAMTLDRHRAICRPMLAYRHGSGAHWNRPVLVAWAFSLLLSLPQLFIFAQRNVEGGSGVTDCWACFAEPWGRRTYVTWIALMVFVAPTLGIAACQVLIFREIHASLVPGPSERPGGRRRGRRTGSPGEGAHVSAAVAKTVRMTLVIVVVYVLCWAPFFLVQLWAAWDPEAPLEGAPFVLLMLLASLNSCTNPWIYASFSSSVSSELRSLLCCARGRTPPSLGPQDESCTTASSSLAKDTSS
# [9] = Compound was evaluated for pharmacokinetic property in rats after an oral dose of 10 mg/kg and the value was reported as oral bioavailability (F); assay type: ADME, organism-based; conditions: rat, in vivo
# [10] = biological target: Vasopressin V1a receptor (Homo sapiens, UniProt P37288); assay: Binding affinity towards human Vasopressin V1a receptor by using functional assay
# Sequence of Vasopressin V1a receptor (Homo sapiens, UniProt P37288) (P37288 whole entry): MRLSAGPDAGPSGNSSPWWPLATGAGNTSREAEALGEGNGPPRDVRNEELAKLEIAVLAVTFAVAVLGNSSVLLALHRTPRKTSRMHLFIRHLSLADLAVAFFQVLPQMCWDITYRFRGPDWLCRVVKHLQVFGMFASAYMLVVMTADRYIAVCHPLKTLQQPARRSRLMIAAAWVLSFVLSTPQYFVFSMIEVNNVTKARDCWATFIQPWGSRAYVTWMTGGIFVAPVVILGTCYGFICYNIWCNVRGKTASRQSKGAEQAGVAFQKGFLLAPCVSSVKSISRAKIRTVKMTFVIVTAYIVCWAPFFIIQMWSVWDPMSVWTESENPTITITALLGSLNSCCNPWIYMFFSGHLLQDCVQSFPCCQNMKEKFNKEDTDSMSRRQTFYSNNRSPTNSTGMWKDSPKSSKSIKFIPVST
# [11] = biological target: Vasopressin V2 receptor (Rattus norvegicus, UniProt Q00788); assay: Binding affinity towards rat kidney Vasopressin V2 receptor by using functional assay
# Sequence of Vasopressin V2 receptor (Rattus norvegicus, UniProt Q00788) (Q00788 whole entry): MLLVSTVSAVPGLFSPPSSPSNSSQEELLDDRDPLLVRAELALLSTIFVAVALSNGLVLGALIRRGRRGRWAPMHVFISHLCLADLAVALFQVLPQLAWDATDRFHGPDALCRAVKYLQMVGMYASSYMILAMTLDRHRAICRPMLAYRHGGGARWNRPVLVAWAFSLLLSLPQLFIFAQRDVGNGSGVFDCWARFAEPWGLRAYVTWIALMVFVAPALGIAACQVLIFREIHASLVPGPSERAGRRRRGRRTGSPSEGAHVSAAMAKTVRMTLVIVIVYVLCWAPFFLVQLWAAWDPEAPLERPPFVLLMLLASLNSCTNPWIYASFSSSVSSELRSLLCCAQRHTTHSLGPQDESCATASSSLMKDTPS
# [12] = tested on: Rattus norvegicus; assay: Compound tested in vivo for antagonist potency against oxytocin (OT)-induced contractions in rat uterus by iv administration; assay type: functional
# [13] = Compound was evaluated in vivo in rat for the plasma half-life at a oral dose of 20 mg/kg experiment by using concentration vs time curve; assay type: ADME, organism-based; design: dose 20 mg/kg, route oral
Compound,AD50 [1] [mg/kg],Ki [2] [nM],Ki [3] [nM],AD50 [5] [mg/kg],also measured
O=C(Cc1ccc(OC2CCN(CC3CC3)CC2)cc1OCC(F)(F)F)N1CCC(N2C(=O)OCc3ccccc32)CC1,0.69,1,1.2,22,bioavailability [4]: 45%; half-life [6]: 1.7 h
CC(=O)N1CCC(Oc2ccc(CC(=O)N3CCC(N4C(=O)OCc5ccccc54)CC3)c(OCC(F)(F)F)c2)CC1,0.06,1.4,0.71,0.64,Ki [7]: 2 nM; Ki [8]: 130 nM; bioavailability [9]: 19%; bioavailability [4]: 19%; Ki [10]: 740 nM; Ki [11]: 150 nM; half-life [6]: 0.27 h
CC(=O)N1CCC(Oc2ccc(CC(=O)N3CCC(N4C(=O)OCc5ccccc54)CC3)c(OC(F)(F)F)c2)CC1,0.27,2.4,2.8,,
COc1cc(OC2CCN(C(C)=O)CC2)ccc1C(=O)N1CCC(N2C(=O)OCc3ccccc32)CC1,,,,2.5,AD50 [12]: 0.55 mg/kg; half-life [13]: 0.5 h
O=C(Cc1ccccc1OCC(F)(F)F)N1CCC(N2C(=O)OCc3ccccc32)CC1,1,4.5,6,>10,
O=C(Cc1ccc(N2CCOCC2)cc1OCC(F)(F)F)N1CCC(N2C(=O)OCc3ccccc32)CC1,0.077,0.86,0.6,0.97,
CC(=O)N1CCC(Oc2ccc(CC(=O)N3CCC(N4C(=O)OCc5ccccc54)CC3)cc2)CC1,,390,1600,,
COc1ccc(CCC(=O)N2CCC(N3C(=O)OCc4ccccc43)CC2)c(OC)c1,,240,520,,
COc1ccc(CC(=O)N2CCC(N3C(=O)OCc4ccccc43)CC2)c(OC)c1,,33,37,,
O=C(Cc1ccc(OCCN2CCOCC2)cc1OCC(F)(F)F)N1CCC(N2C(=O)OCc3ccccc32)CC1,0.13,1.4,2.1,,bioavailability [4]: 31%; half-life [6]: 2.8 h
COc1cc(OC2CCN(C(C)=O)CC2)ccc1CC(=O)N1CCC(N2C(=O)OCc3ccccc32)CC1,,9.8,36,,
